Common to all, as to format: functional
The species named for test [1] is Sus scrofa. The test can be described thus: Inhibition of COX2 synthesis in pig skin.
For test [2], the species on record is Sus scrofa. Nature of the test: Suppression of COX2 expression in pig skin by immunostaining after 6 hrs.
The species named for test [3] is Sus scrofa. The test can be described thus: Increase in COX2 expression in pig skin at 500 uM by Western blotting. (In general: A western blot detects proteins with antibodies after separation by electrophoresis.)
Test [4] is filed under the species Sus scrofa. The test can be described thus: Reduction of COX2 expression in pig skin at 500 uM by Western blotting.

Calls of active or inactive are those of the source. No cut-off for these calls is given here.

As to `C[C@]1(OC(=O)/C=C/c2ccccc2)C[C@@H](O)[C@]2(O)C=CO[C@@H](O[C@@H]3O[C@H](CO)[C@@H](O)[C@H](O)[C@H]3O)[C@@H]21` [HARPAGOSIDE], the “inhibition (INH)” value in the test filed under Sus scrofa [1] is reported as less than 50%. Also, the result in the test filed under Sus scrofa [2] was Active.
Turning to `C[C@@H]1O[C@@H](O[C@@H]2[C@@H](O)[C@H](OCCc3ccc(O)c(O)c3)O[C@H](CO)[C@H]2OC(=O)/C=C/c2ccc(O)c(O)c2)[C@H](O)[C@H](O)[C@H]1O` [ACETOSIDE], in the test filed under Sus scrofa [1], the “inhibition (INH)” value is reported as less than 50%. The result in the test listed under Sus scrofa [2] was Active.
In the case of `C[C@]1(O)C[C@@H](O)[C@]2(O)C=CO[C@@H](O[C@H]3O[C@H](CO)[C@@H](O)[C@H](O)[C@H]3O)[C@@H]21`, the result in the test listed under Sus scrofa [3] was Active.
In the case of `CC(C)Cc1ccc(C(C)C(=O)O)cc1` (stereo not given) [IBUPROFEN], the “inhibition (INH)” value in the test filed under Sus scrofa [1] is reported as less than 50%. In addition, the result in the test filed under Sus scrofa [2] was Active.
On to `C[C@]1(OC(=O)/C=C/c2ccc(O)cc2)C[C@@H](O)[C@]2(O)C=CO[C@@H](O[C@@H]3O[C@H](CO)[C@@H](O)[C@H](O)[C@H]3O)[C@@H]21`, for which the “inhibition (INH)” value in the test filed under Sus scrofa [1] is reported as less than 50%. For the same compound, the outcome in the test filed under Sus scrofa [4] and in the test listed under Sus scrofa [2] was Active.

For the origin of these results see ChEMBL document CHEMBL1150270, “Effect of the major glycosides of Harpagophytum procumbens (Devil's Claw) on epidermal cyclooxygenase-2 (COX-2) in vitro” (2008).
